Consider two compounds from US8603751B2, “Mycobacterial disease detection, treatment, and drug discovery” (priority 2006, dated 2013).

In this test the target is DevR (also known as DosR or Rv3133c) dimerization (Mycobacterium tuberculosis, UniProt P9WMF9). The experiment in a line: M-PFC Alamar Blue screen for inhibitors of DevR dimerization. It counts as cell-based. Particulars: for effect on DevR dimerization: M-PFC Alamar Blue assay in Msm, titration (FIG. 11); for concentration with the most dramatic effect on DevR dimerization: titration curves, FIG. 11. In general terms: Resazurin is reduced to fluorescent resorufin, in cell work by metabolically active cells.
DevR (also known as DosR or Rv3133c) dimerization, sequence (P9WMF9 whole entry, looked up): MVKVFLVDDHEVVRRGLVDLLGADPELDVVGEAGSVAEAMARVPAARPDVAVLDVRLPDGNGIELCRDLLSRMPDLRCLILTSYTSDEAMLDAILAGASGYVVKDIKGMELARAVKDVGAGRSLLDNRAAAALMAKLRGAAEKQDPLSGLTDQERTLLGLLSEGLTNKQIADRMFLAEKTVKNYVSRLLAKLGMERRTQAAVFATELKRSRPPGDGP

Consider `CC(=O)NS(=O)(=O)c1ccc(NC(=O)CCc2ccccc2)cc1` [N-(4-[(acetylamino)sulfonyl]phenyl)-3-phenylpropanamide], for which the “effect on DevR dimerization” value is “inhibitory effect against DevR dimerization at low concentrations” and the “concentration with the most dramatic effect on DevR dimerization” value is 12.5 µg/mL.

As for `Cl.Cn1c(=N)n(CC(=O)c2cc(C(C)(C)C)c(O)c(C(C)(C)C)c2)c2ccccc21` [1-(3,5-di-tert-butyl-4-hydroxyphenyl)-2-(2-imino-3-methyl-2,3-dihydro-1H-benzimidazol-1-yl)ethanone hydrochloride], the “effect on DevR dimerization” value is on record as “inhibitory effect against DevR dimerization at low concentrations” and the “concentration with the most dramatic effect on DevR dimerization” value came out at 12.5 µg/mL.
